# Experimental data: paper PMC10180197, “Novel Pyrimidine Derivatives as Antioxidant and Anticancer Agents: Design, Synthesis and Molecular Modeling Studies” (Molecules, 2023)
# Key:
# [1] = Reducing activity of the stable radical DPPH
# Experimental: All the synthesized compounds were studied for their ability to interact with the stable free 2,2-diphenyl-1-picrylhydrazyl radical (DPPH) at a concentration of 100 μM after 20 min and 60 min (Table 4). This assay is based on the reduction of DPPH by transferring one electron from the antioxidant.
# In vitro study was performed as reported previously by our group. In this experiment, 20 μL of the tested compound (from the stock solution), 980 μL EtOH and 1 mL ethanolic solution of DPPH (100 μM) were added in a testing tube in a final volume of 2 mL. The free radical scavenging ability was evaluated by recording the change of absorbance at 517 nm, produced by the reduction of DPPH, after 20 and 60 min at room temperature.
# soybean lipoxygenase = target: T1, soybean lipoxygenase (Glycine max, UniProt P08170); assay: Inhibition of soybean lipoxygenase; type: biochemical; conditions: for IC50: cells of the mixed column with μM, read-out: LOX IC50; for inhibition at 100 µM: read-out: LOX % Inhibition 100 μM
# T1 construct: purchased Sigma Aldrich- Merck KGaA, Darmstadt, Germany
# T1 sequence (P08170 1-839): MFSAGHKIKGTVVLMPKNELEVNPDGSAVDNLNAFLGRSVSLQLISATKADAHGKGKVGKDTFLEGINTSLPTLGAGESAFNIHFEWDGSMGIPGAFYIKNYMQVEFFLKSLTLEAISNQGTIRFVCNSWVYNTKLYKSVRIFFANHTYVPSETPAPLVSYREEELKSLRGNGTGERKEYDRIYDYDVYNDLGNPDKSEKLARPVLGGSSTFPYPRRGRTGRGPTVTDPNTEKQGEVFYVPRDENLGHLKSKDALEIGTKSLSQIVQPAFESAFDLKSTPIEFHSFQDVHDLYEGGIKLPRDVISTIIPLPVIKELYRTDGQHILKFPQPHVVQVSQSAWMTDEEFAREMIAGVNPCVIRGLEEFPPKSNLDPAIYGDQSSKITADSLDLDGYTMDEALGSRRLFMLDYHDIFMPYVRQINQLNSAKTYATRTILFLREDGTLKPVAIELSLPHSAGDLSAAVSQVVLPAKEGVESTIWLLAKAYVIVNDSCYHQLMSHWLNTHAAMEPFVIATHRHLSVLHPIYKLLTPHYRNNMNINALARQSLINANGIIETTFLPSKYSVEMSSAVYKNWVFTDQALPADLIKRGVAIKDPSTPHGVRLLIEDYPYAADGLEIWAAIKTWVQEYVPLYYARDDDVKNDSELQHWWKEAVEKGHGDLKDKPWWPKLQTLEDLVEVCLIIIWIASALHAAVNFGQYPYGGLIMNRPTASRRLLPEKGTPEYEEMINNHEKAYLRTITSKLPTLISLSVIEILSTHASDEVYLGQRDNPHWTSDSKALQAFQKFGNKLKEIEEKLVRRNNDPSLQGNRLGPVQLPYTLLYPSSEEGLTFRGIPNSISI
# Source text: Lipoxygenase (LOX) is the key enzyme in the biosynthesis of inflammatory mediators; thus, it is considered a target for inflammatory diseases. Soybean LOX is a plant enzyme that has been used widely as a prototype for studying the functional and structural properties of the homologous family of lipoxygenases, presenting satisfactory homology with the human 5-LOX [42]. Linoleic acid is the most common substrate in plant LOX. […] Lipophilicity is considered one of the most important parameters with regard to LOX inhibitors according to the literature.
# In vitro study was performed as reported previously by our group. In this experiment, 10 μL of the tested compound (from the stock solution) were incubated with 100 μL sodium linoleate (diluted in Tris buffer), 200 μL LOX solution (1:9 × 10^−4 w/v in saline) and 690 μL Tris buffer (pH 9.0) at room temperature. The absorbance was measured at 234 nm, where the change of absorbance was recorded due to the formation of 13-hydroperoxy-linoleic acid. […] In order to determine the IC50 values, different concentrations were used.
# [2] = MTT cell viability assay, HaCaT; type: cell-based, human; conditions: human, HaCaT cells (epidermal keratinocyte cell line); for viability at 24 h, 10 μM: 10 μΜ; for viability at 24 h, 50 μM: 50 μΜ
# Experimental: (§1) The MTT (3-(4,5-dimethylthiazol-2-yl)-2,5-diphenyltetrazolium bromide) assay is a colorimetric method that is used for the evaluation of cell viability. MTT is converted into colored formazan crystals, indicating the activity of mitochondria and therefore the viability of the cells. Unlike dead cells, the metabolic processes of living cells are functional, meaning that the dehydrogenase enzymes are able to reduce the yellow MTT salt solution to purple crystals, at 37 °C. The intensity of the sample’s color, due to the amount of formazan crystals, is proportional to the number of the living cells in it. Additionally, the colored product is dissolved in various solubilizing agents, such as dimethyl sulfoxide (DMSO). The colored products can be quantitatively measured at 450 nm with a plate reader spectrophotometer. In this study, the human epidermal keratinocyte cell line (HaCaT) was treated with different concentrations (100 μM, 50 μM, 10 μM and 1 μM) of the tested compounds and then the viability rates at each effect were calculated.
# (§2) Τhe MTT assay was used to evaluate cell viability or cell toxicity, depending on the cell line being tested. The experimental procedure was performed in a 96-well plate, where the cells were seeded and incubated (37 °C, 5% CO2) for 24 h to grow and cover the surface of the wells. Τhe seeding concentrations for the HaCaT and A549 cells were 30 × 10^4 cells/mL and 20 × 10^4 cells/mL, respectively. After the first incubation, the solutions of the compounds (with different concentrations) were added to the adherent cells and incubated for another 24 h. The compounds were tested in triplicate against the control (only cells in medium), the blank (only medium) and the positive/negative control (cells in 100 μM silibinin solution) triplicates. Silibinin, a flavonoid with known anticancer activities, was used as a negative control for the cell viability assay and as positive control for the cytotoxicity testing assay. The light-sensitive MTT-standard solution was prepared by dissolving 1 mg/mL MTT in PBS and then filtrated (in a […] filter (Millipore, Carrigtwohill, Ireland)). On the third day, an appropriate amount of ΜΤΤ solution was added to each well and the plate was incubated for 4 h. During the incubation time, the formazan crystals were formed, which were then dissolved with 100 μL DMSO per well. Finally, the plate was stirred for 30 min, and the optical density (OD) was measured in a plate reader spectrophotometer at 450 nm.
# HaCaT cell line = assay: MTT cell viability assay, HaCaT; type: cell-based, human; conditions: 24 h
# Experimental: as §1, §2
# [3] = 100 μM, cells of the mixed column without μM
Structure (SMILES),RA % 100 μM 20 min [1],RA % 100 μM 60 min [1],IC50 (soybean lipoxygenase),"viability at 24 h, 10 μM [2]",% Cell Viability 100 μΜ (HaCaT cell line),"viability at 24 h, 50 μM [2]",inhibition at 100 µM (soybean lipoxygenase; [3]),"viability at 24 h, 1 μM ([2]; 1 μΜ)",% Cell Viability 10 μΜ (HaCaT cell line; 10 μΜ),"viability at 24 h, 100 μM ([2]; 100 μΜ)",LOX % Inhibition 100 μM (soybean lipoxygenase; [3])
"O=c1[nH]c(=S)[nH]c2nc(-c3ccccc3)cc(-c3ccc(Cl)cc3)c12 [Compound 2e, 5-(4-chlorophenyl)-7-phenyl-2-thioxo-2,3-dihydropyrido [2,3-d]pyrimidin-4(1H)-one]",24%,42%,76 µM,22.9%,no,,,,,,
"O=C(/C=C/c1cccs1)c1ccc(Cl)cc1 [Compound 1d, (E)-1-(4-chlorophenyl)-3-(thiophen-2-yl)prop-2-en-1-one]",no,no,72.5 µM,72.8%,no,53%,,,,,
"O=C(/C=C/c1ccc(Cl)cc1)c1ccccc1 [Compound 1e, (E)-3-(4-chlorophenyl)-1-phenylprop-2-en-1-one]",no,no,55.5 µM,100%,no,89.9%,,,,,
"O=C(/C=C/c1ccccc1)c1ccccc1 [Compound 1a, (E)-1,3-diphenylprop-2-en-1-one]",22%,no,,55.1%,no,,26%,,,,
"O=c1[nH]c(=S)[nH]c2nc(-c3ccc(Cl)cc3)cc(-c3ccc(Cl)cc3)c12 [Compound 2f, 5,7-bis(4-chlorophenyl)-2-thioxo-2,3-dihydropyrido [2,3-d]pyrimidin-4(1H)-one]",no,no,47.5 µM,,no,,,73.4%,no,,
"O=c1[nH]c(=S)[nH]c2nc(-c3ccc(Cl)cc3)cc(-c3ccc(Cl)cc3Cl)c12 [Compound 2h, 7-(4-chlorophenyl)-5-(2,4-dichlorophenyl)-2-thioxo-2,3-dihydropyrido [2,3-d]pyrimidin-4(1H)-one]",no,no,,100%,no,89.9%,27%,,,,
"O=c1[nH]c(=S)[nH]c2nc(-c3ccccc3)cc(-c3cccs3)c12 [Compound 2c, 7-phenyl-5-(thiophen-2-yl)-2-thioxo-2,3-dihydropyrido [2,3-d]pyrimidin-4(1H)-one]",14%,10%,68.5 µM,16.1%,no,,,,,,
"O=C(/C=C/c1ccc(Cl)cc1Cl)c1ccccc1 [Compound 1g, (E)-3-(2,4-dichlorophenyl)-1-phenylprop-2-en-1-one]",2%,8%,17 µM,100%,,32.7%,,,,2.1%,
"O=c1[nH]c(=S)[nH]c2nc(-c3ccc(Cl)cc3)cc(-c3ccccc3)c12 [Compound 2b, 7-(4-chlorophenyl)-5-phenyl-2-thioxo-2,3-dihydropyrido [2,3-d]pyrimidin-4(1H)-one]",no,1%,,75.1%,no,26%,6%,,,,
"O=c1[nH]c(=S)[nH]c2nc(-c3ccc(Cl)cc3)cc(-c3cccs3)c12 [Compound 2d, 7-(4-chlorophenyl)-5-(thiophen-2-yl)-2-thioxo-2,3-dihydropyrido [2,3-d]pyrimidin-4(1H)-one]",no,no,70 µM,50%,no,,,,,,
"O=c1[nH]c(=S)[nH]c2nc(-c3ccccc3)cc(-c3ccc(Cl)cc3Cl)c12 [Compound 2g, 5-(2,4-dichlorophenyl)-7-phenyl-2-thioxo-2,3-dihydropyrido [2,3-d]pyrimidin-4(1H)-one]",1%,no,54 µM,56.7%,no,,,,,,
"O=C(/C=C/c1ccc(Cl)cc1)c1ccc(Cl)cc1 [Compound 1f, (E)-1,3-bis(4-chlorophenyl)prop-2-en-1-one]",no,no,,100%,no,57%,4%,,,,
"O=c1[nH]c(=S)[nH]c2nc(-c3ccccc3)cc(-c3ccccc3)c12 [Compound 2a, 5,7-diphenyl-2-thioxo-2,3-dihydropyrido [2,3-d]pyrimidin-4(1H)-one]",29%,56%,42 µM,100%,no,85.6%,,,,,
"O=C(/C=C/c1ccccc1)c1ccc(Cl)cc1 [Compound 1b, (E)-1-(4-chlorophenyl)-3-phenylprop-2-en-1-one]",no,4%,,28.1%,no,,39%,,,,
"O=C(/C=C/c1ccc(Cl)cc1Cl)c1ccc(Cl)cc1 [Compound 1h, (E)-1-(4-chlorophenyl)-3-(2,4-dichlorophenyl)prop-2-en-1-one]",no,no,,25.4%,no,,,,,,no
